# US6914045B2, “Glycopeptide antibiotics” (Wyeth Holdings Corporation, priority 2001, dated 2005)
# Legend:
# Assay in all cases: in vitro antibacterial evaluation, MIC by broth dilution
# Assay type in all cases: cell-based
# Enterococcus sp. = details: broth dilution, 18 hours at 35° C.
# Outline: (§1)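 MIC = lowest antibiotic concentration preventing visible growth; inoculum 5×10^5 CFU/mL; drug range 64-0.06 μg/mL; Muller-Hinton II […]; NCCLS M7-A2 guidance.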
# Escherichia coli = tested on: Escherichia coli
# Outline: as §1
# Staphylococcus sp. = details: broth dilution, 18 hours at 35° C.; for MIC Staphylococcus aureus (GC 1131): strain GC 1131
# Outline: as §1
# Streptococcus sp. = details: broth dilution, 18 hours at 35° C.
# Outline: as §1
smiles,measurement,setting,value
"CC(c1ccccc1)C1NC(=O)CNC(=O)C(CO)NC(=O)C(C(O)C2CNC(=N)N2C2OC(CO)C(O)C(O)C2O)NC(=O)C(C(O)C2CNC(=N)N2)NC(=O)C(Cc2ccc(OC3OC(CO)C(OC4OC5COC(c6cccc(Cl)c6)OC5C(O)C4O)C(O)C3O)cc2)NC1=O (stereo not drawn) [Example 138, Cyclo[glycyl-β-methylphenylalanyl-O-[4-O-[4,6-O-(3-chlorobenzylidene)hexopyranosyl]-hexopyranosyl]tyrosyl-3-(2-iminoimidazolidin-4-yl)seryl-3-(3-hexopyranosyl-2-iminoimidazolidin-4-yl)serylseryl]]",MIC Enterococcus avium (GC 4558),Enterococcus sp.; Enterococcus avium (GC 4558),4 µg/mL
same,MIC Enterococcus faecalis (ATCC 29212),Enterococcus sp.; Enterococcus faecalis (ATCC 29212),4 µg/mL
same,MIC Enterococcus faecalis (GC 2242),Enterococcus sp.; Enterococcus faecalis (GC 2242),4 µg/mL
same,MIC Enterococcus faecalis (GC 2691),Enterococcus sp.; Enterococcus faecalis (GC 2691),8 µg/mL
same,MIC Enterococcus faecalis (GC 3059),Enterococcus sp.; Enterococcus faecalis (GC 3059),4 µg/mL
same,MIC Enterococcus faecalis (GC 4552),Enterococcus sp.; Enterococcus faecalis (GC 4552),4 µg/mL
same,MIC Enterococcus faecalis (GC 4553),Enterococcus sp.; Enterococcus faecalis (GC 4553),8 µg/mL
same,MIC Enterococcus faecalis (GC 4554),Enterococcus sp.; Enterococcus faecalis (GC 4554),8 µg/mL
same,MIC Enterococcus faecalis (GC 6189),Enterococcus sp.; Enterococcus faecalis (GC 6189),4 µg/mL
same,MIC Enterococcus faecium (GC 2243),Enterococcus sp.; Enterococcus faecium (GC 2243),4 µg/mL
same,MIC Enterococcus faecium (GC 4556),Enterococcus sp.; Enterococcus faecium (GC 4556),8 µg/mL
same,MIC Enterococcus faecium (GC 4557),Enterococcus sp.; Enterococcus faecium (GC 4557),2 µg/mL
same,MIC Enterococcus faecalis (ATCC 29212),Enterococcus sp.; strain ATCC 29212,4 µg/mL
same,MIC Enterococcus faecalis (GC 2242),Enterococcus sp.; strain GC 2242,4 µg/mL
same,MIC Enterococcus faecium (GC 2243),Enterococcus sp.; strain GC 2243,4 µg/mL
same,MIC Enterococcus faecalis (GC 2691),Enterococcus sp.; strain GC 2691,8 µg/mL
same,MIC Enterococcus faecalis (GC 3059),Enterococcus sp.; strain GC 3059,4 µg/mL
same,MIC Enterococcus faecalis (GC 4552),Enterococcus sp.; strain GC 4552,4 µg/mL
same,MIC Enterococcus faecalis (GC 4553),Enterococcus sp.; strain GC 4553,8 µg/mL
same,MIC Enterococcus faecalis (GC 4554),Enterococcus sp.; strain GC 4554,8 µg/mL
same,MIC Enterococcus faecium (GC 4556),Enterococcus sp.; strain GC 4556,8 µg/mL
same,MIC Enterococcus faecium (GC 4557),Enterococcus sp.; strain GC 4557,2 µg/mL
same,MIC Enterococcus avium (GC 4558),Enterococcus sp.; strain GC 4558,4 µg/mL
same,MIC Enterococcus faecalis (GC 6189),Enterococcus sp.; strain GC 6189,4 µg/mL
same,MIC Escherichia coli (ATCC 25922),"Escherichia coli; strain ATCC 25922, 18 hours at 35° C.",64 µg/mL
same,MIC Escherichia coli (GC 4559),"Escherichia coli; strain GC 4559, 18 hours at 35° C.",64 µg/mL
same,MIC Escherichia coli (GC 4560),"Escherichia coli; strain GC 4560, 18 hours at 35° C.",0.5 µg/mL
same,MIC Staphylococcus aureus (GC 1131),Staphylococcus sp.; inoculum 5×10^5 CFU/mL,2 µg/mL
same,MIC Staphylococcus aureus (ATCC 29213),Staphylococcus sp.; strain ATCC 29213,2 µg/mL
same,MIC Staphylococcus aureus (GC 1131),Staphylococcus sp.,2 µg/mL
same,MIC Staphylococcus aureus (GC 3051),Staphylococcus sp.; strain GC 3051,2 µg/mL
same,MIC Staphylococcus aureus (GC 3053),Staphylococcus sp.; strain GC 3053,2 µg/mL
same,MIC Staphylococcus aureus (GC 4541),Staphylococcus sp.; strain GC 4541,2 µg/mL
same,MIC Staphylococcus aureus (GC 4542),Staphylococcus sp.; strain GC 4542,2 µg/mL
same,MIC Staphylococcus aureus-SMITH (GC 4543),Staphylococcus sp.; strain GC 4543,1 µg/mL
same,MIC Staphylococcus aureus (GC 4544),Staphylococcus sp.; strain GC 4544,2 µg/mL
same,MIC Staphylococcus aureus (GC 4545),Staphylococcus sp.; strain GC 4545,2 µg/mL
same,MIC Staphylococcus haemolyticus (GC 4546),Staphylococcus sp.; strain GC 4546,2 µg/mL
same,MIC Coagulase Negative Staphylococcus (GC 4547),Staphylococcus sp.; strain GC 4547,4 µg/mL
same,MIC Coagulase Negative Staphylococcus (GC 4548),Staphylococcus sp.; strain GC 4548,1 µg/mL
same,MIC Coagulase Negative Staphylococcus (GC 4549),Staphylococcus sp.; strain GC 4549,1 µg/mL
same,MIC Coagulase Negative Staphylococcus (GC 4551),Staphylococcus sp.; strain GC 4551,2 µg/mL
same,MIC Coagulase Negative Staphylococcus (GC 6257),Staphylococcus sp.; strain GC 6257,2 µg/mL
same,MIC Staphylococcus aureus-SMITH (GC 4543),Staphylococcus sp.; strain SMITH GC 4543,1 µg/mL
same,MIC Streptococcus agalactiae (GC 4564),Streptococcus sp.; Streptococcus agalactiae (GC 4564),0.12 µg/mL
same,MIC Streptococcus pneumoniae (ATCC 6301),Streptococcus sp.; Streptococcus pneumoniae (ATCC 6301),<0.06 µg/mL
same,MIC Streptococcus pneumoniae (GC 1894),Streptococcus sp.; Streptococcus pneumoniae (GC 1894),<0.06 µg/mL
same,MIC Streptococcus pneumoniae (GC 4565),Streptococcus sp.; Streptococcus pneumoniae (GC 4565),<0.06 µg/mL
same,MIC Streptococcus pyogenes (GC 4563),Streptococcus sp.; Streptococcus pyogenes (GC 4563),0.25 µg/mL
same,MIC Streptococcus pneumoniae (ATCC 6301),Streptococcus sp.; strain ATCC 6301,<0.06 µg/mL
same,MIC Streptococcus pneumoniae (GC 1894),Streptococcus sp.; strain GC 1894,<0.06 µg/mL
same,MIC Streptococcus pyogenes (GC 4563),Streptococcus sp.; strain GC 4563,0.25 µg/mL
same,MIC Streptococcus agalactiae (GC 4564),Streptococcus sp.; strain GC 4564,0.12 µg/mL
same,MIC Streptococcus pneumoniae (GC 4565),Streptococcus sp.; strain GC 4565,<0.06 µg/mL
